In US10253002B2, “Compounds and methods of treating infections” (Neoculi Pty Ltd., priority 2013, dated 2019):
Read-outs that look alike come from different tables or passages of the source.

Key:
[1] = system: S. aureus clinical isolates (MRSA and MSSA); assay: Broth microdilution MIC, Example 4; type: cell-based, Staphylococcus aureus; settings: for MIC / MIC50 / MIC90: Staphylococcus aureus; for MIC: 24 h
Protocol: Microtiter plates containing two-fold dilutions of each antimicrobial agent were inoculated with ˜10^5 CFU/ml of each isolate in a 100 μL final volume. Plates were incubated for 24 h at 37° C. Turbidity (absorbance at OD600) was measured using a Bio-Rad Benchmark Plus microplate spectrophotometer in Microplate Manager® version 5.2.1 (Bio-Rad). Minimum inhibitory concentration (MIC) endpoints were defined as the lowest antimicrobial concentration assessed by the spectrophotometer that inhibited bacterial growth. ATCC 49775 was included in the isolate collection as a control organism using breakpoints defined by the CLSI. The MIC50, MIC90 (concentrations that inhibited growth of the lower 50% and 90% of total organisms, respectively), and MIC range (minimum and maximum) were calculated to profile the antimicrobial susceptibility of the isolate collection.

[2] = system: Escherichia coli; assay: Broth microdilution MIC, Example 7 (NCL812 and analogues); type: cell-based
[3] = system: MRSA; assay: as above; type: cell-based, Staphylococcus aureus
In short: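 Isolates were tested in duplicate, with a third run if replicates differed by more than one two-fold dilution; inoculum purity was checked on sheep blood agar.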

[4] = system: Staphylococcus pseudintermedius isolates (MSSP and MRSP); assay: MIC (CLSI), Example 6; type: cell-based
Protocol: Anti-staphylococcal compounds were then tested against all 23 isolates and minimum inhibitory concentrations (MIC) were determined according to standard protocols. After the MICs were determined, the minimum bactericidal concentrations were performed to determine if these compounds are bacteriostatic or bacteriocidal.

[5] = Methicillin-susceptible staphylococci (n = 10)
[6] = Total bacterial isolates (n = 30)
[7] = Staphylococcus pseudintermedius isolates

CC1(C)S[C@@H]2[C@H](NC(=O)[C@H](N)c3ccccc3)C(=O)N2[C@H]1C(=O)O [Ampicillin]
128 µg/mL: MIC90 ([1]; CA-MRSA (n = 10)) | MIC90 [1, 6] | MIC ([3]; MRSA 610, Phase I, 2nd) | MIC ([3]; MRSA 713, Phase II, 1st) | MIC ([3]; MRSA 713, Phase II, 2nd) | MIC ([3]; MRSA 778, Phase II, 1st) | MIC ([3]; MRSA 778, Phase II, 2nd) | MIC ([3]; MRSA 823, Phase II, 1st) | MIC ([3]; MRSA 823, Phase II, 2nd) | MIC ([3]; MRSA 844, Phase I, 1st) | MIC ([3]; MRSA 844, Phase I, 2nd) | MIC90 [4, 7] | MIC ([4]; Staphylococcus pseudintermedius, Staphylococcus pseudintermedius isolates, read-out: MIC mode) | MIC ([4]; isolate S1P1) | MIC ([4]; isolate S3P3) | MIC ([4]; isolate S4P4) | MIC ([4]; isolate S7P7) | MIC ([4]; isolate S8P8) | MIC ([4]; isolate S11P11)
0.25-16^ μg/ml: MICrange [1, 5]
0.1 µg/mL: MIC ([4]; Staphylococcus pseudintermedius, isolate S21P21, read-out: MIC)
4 µg/mL: MIC ([2]; E. coli, 2nd) | MIC ([2]; Escherichia coli, read-out: MIC (μg/ml) at 24 hours, E. coli, 24 hours, 1st and 2nd replicate rows) | MIC ([2]; Escherichia coli, E. coli, 1st, read-out: MIC) | MIC ([3]; Staphylococcus aureus, MRSA, MRSA 741, Phase II, 1st, read-out: MIC) | MIC ([3]; Staphylococcus aureus, MRSA, MRSA 741, Phase II, 2nd, read-out: MIC) | MIC ([4]; Staphylococcus pseudintermedius, isolate S15P15, read-out: MIC) | MIC ([4]; Staphylococcus pseudintermedius, isolate S18P18, read-out: MIC) | MIC ([4]; Staphylococcus pseudintermedius, isolate S20P20, read-out: MIC)
0.5 µg/mL: MIC ([4]; Staphylococcus pseudintermedius, isolate S19P19, read-out: MIC)
64 µg/mL: MIC50 ([1]; CA-MRSA (n = 10)) | MIC50 ([1]; HA-MRSA (n = 10)) | MIC ([3]; Staphylococcus aureus, MRSA, MRSA 616, Phase I, 1st, read-out: MIC) | MIC ([3]; Staphylococcus aureus, MRSA, MRSA 616, Phase I, 2nd, read-out: MIC) | MIC ([3]; Staphylococcus aureus, MRSA, MRSA 616, Phase II, 1st, read-out: MIC) | MIC ([3]; Staphylococcus aureus, MRSA, MRSA 616, Phase II, 2nd, read-out: MIC) | MIC ([3]; Staphylococcus aureus, MRSA, MRSA 622, Phase I, 1st, read-out: MIC) | MIC ([3]; Staphylococcus aureus, MRSA, MRSA 622, Phase I, 2nd, read-out: MIC) | MIC ([3]; Staphylococcus aureus, MRSA, MRSA 698, Phase I, 1st, read-out: MIC) | MIC ([3]; Staphylococcus aureus, MRSA, MRSA 698, Phase I, 2nd, read-out: MIC) | MIC ([3]; Staphylococcus aureus, MRSA, MRSA 718, Phase II, 1st, read-out: MIC) | MIC ([3]; Staphylococcus aureus, MRSA, MRSA 718, Phase II, 2nd, read-out: MIC) | MIC ([3]; Staphylococcus aureus, MRSA, MRSA 728, Phase I, 1st, read-out: MIC) | MIC ([3]; Staphylococcus aureus, MRSA, MRSA 728, Phase I, 2nd, read-out: MIC) | MIC ([3]; Staphylococcus aureus, MRSA, MRSA 734, Phase II, 1st, read-out: MIC) | MIC ([3]; Staphylococcus aureus, MRSA, MRSA 734, Phase II, 2nd, read-out: MIC) | MIC ([3]; Staphylococcus aureus, MRSA, MRSA 747, Phase II, 1st, read-out: MIC) | MIC ([3]; Staphylococcus aureus, MRSA, MRSA 747, Phase II, 2nd, read-out: MIC) | MIC ([3]; Staphylococcus aureus, MRSA, MRSA 773, Phase I, 1st, read-out: MIC) | MIC ([3]; Staphylococcus aureus, MRSA, MRSA 773, Phase I, 2nd, read-out: MIC) | MIC ([3]; Staphylococcus aureus, MRSA, MRSA 773, Phase II, 1st, read-out: MIC) | MIC ([3]; Staphylococcus aureus, MRSA, MRSA 773, Phase II, 2nd, read-out: MIC) | MIC ([3]; Staphylococcus aureus, MRSA, MRSA 787, Phase II, 1st, read-out: MIC) | MIC ([3]; Staphylococcus aureus, MRSA, MRSA 787, Phase II, 2nd, read-out: MIC) | MIC ([3]; Staphylococcus aureus, MRSA, MRSA 815, Phase I, 1st, read-out: MIC) | MIC ([3]; Staphylococcus aureus, MRSA, MRSA 815, Phase I, 2nd, read-out: MIC) | MIC ([3]; Staphylococcus aureus, MRSA, MRSA 844, Phase II, 1st, read-out: MIC) | MIC ([4]; Staphylococcus pseudintermedius, isolate S6P6, read-out: MIC) | MIC ([4]; Staphylococcus pseudintermedius, isolate S10P10, read-out: MIC)
16 µg/mL: MIC ([1]; read-out: Observed MIC at 24-h, MRSA698, present study) | MIC ([1]; read-out: Original MIC at 24-h, MRSA698, preliminary studies) | MIC50 [1, 6] | MIC ([3]; Staphylococcus aureus, MRSA, 24 h, read-out: MIC (μg/ml) at 24 hours, MRSA 2, isolate MRSA 2, 24 hours, 1st and 2nd replicate rows) | MIC ([3]; Staphylococcus aureus, MRSA, MRSA 516, Phase II, 2nd, read-out: MIC) | MIC ([4]; Staphylococcus pseudintermedius, isolate S5P5, read-out: MIC)
32 µg/mL: MIC ([3]; Staphylococcus aureus, MRSA, MRSA 516, Phase I, 1st, read-out: MIC) | MIC ([3]; Staphylococcus aureus, MRSA, MRSA 516, Phase I, 2nd, read-out: MIC) | MIC ([3]; Staphylococcus aureus, MRSA, MRSA 516, Phase II, 1st, read-out: MIC) | MIC ([3]; Staphylococcus aureus, MRSA, MRSA 606, Phase I, 1st, read-out: MIC) | MIC ([3]; Staphylococcus aureus, MRSA, MRSA 606, Phase I, 2nd, read-out: MIC) | MIC ([3]; Staphylococcus aureus, MRSA, MRSA 606, Phase II, 1st, read-out: MIC) | MIC ([3]; Staphylococcus aureus, MRSA, MRSA 606, Phase II, 2nd, read-out: MIC) | MIC ([3]; Staphylococcus aureus, MRSA, MRSA 610, Phase II, 1st, read-out: MIC) | MIC ([3]; Staphylococcus aureus, MRSA, MRSA 610, Phase II, 2nd, read-out: MIC) | MIC ([3]; Staphylococcus aureus, MRSA, MRSA 622, Phase II, 1st, read-out: MIC) | MIC ([3]; Staphylococcus aureus, MRSA, MRSA 622, Phase II, 2nd, read-out: MIC) | MIC ([3]; Staphylococcus aureus, MRSA, MRSA 728, Phase II, 1st, read-out: MIC) | MIC ([3]; Staphylococcus aureus, MRSA, MRSA 728, Phase II, 2nd, read-out: MIC) | MIC ([3]; Staphylococcus aureus, MRSA, MRSA 786, Phase I, 1st, read-out: MIC) | MIC ([3]; Staphylococcus aureus, MRSA, MRSA 786, Phase I, 2nd, read-out: MIC) | MIC ([3]; Staphylococcus aureus, MRSA, MRSA 786, Phase II, 1st, read-out: MIC) | MIC ([3]; Staphylococcus aureus, MRSA, MRSA 786, Phase II, 2nd, read-out: MIC) | MIC ([3]; Staphylococcus aureus, MRSA, MRSA 815, Phase II, 1st, read-out: MIC) | MIC ([3]; Staphylococcus aureus, MRSA, MRSA 815, Phase II, 2nd, read-out: MIC) | MIC ([3]; Staphylococcus aureus, MRSA, MRSA 844, Phase II, 2nd, read-out: MIC) | MIC50 [4, 7] | MIC ([4]; Staphylococcus pseudintermedius, isolate S9P9, read-out: MIC) | MIC ([4]; Staphylococcus pseudintermedius, isolate S12P12, read-out: MIC) | MIC ([4]; Staphylococcus pseudintermedius, isolate S23P23, read-out: MIC)
8 to 128 µg/mL: MICrange ([1]; CA-MRSA (n = 10))
0.1 to 128 µg/mL: MIC range [4, 7]
0.25 µg/mL: MIC ([1]; ATCC 49775 / MRSA / MSSA, read-out: Observed MIC at 24-h, ATCC 49775, present study) | MIC50 [1, 5] | MIC ([4]; Staphylococcus pseudintermedius, isolate S13P13, read-out: MIC) | MIC ([4]; Staphylococcus pseudintermedius, isolate S16P16, read-out: MIC)
> 128 µg/mL: MIC ([1]; read-out: Observed MIC at 24-h, MRSA580, present study) | MIC ([1]; read-out: Original MIC at 24-h, MRSA580, preliminary studies) | MIC90 ([1]; HA-MRSA (n = 10)) | MIC ([3]; Staphylococcus aureus, MRSA, 24 h, read-out: MIC (μg/ml) at 24 hours, MRSA 1, isolate MRSA 1, 24 hours, 1st and 2nd replicate rows) | MIC ([3]; Staphylococcus aureus, MRSA, MRSA 570, Phase I, 1st, read-out: MIC) | MIC ([3]; Staphylococcus aureus, MRSA, MRSA 570, Phase I, 2nd, read-out: MIC) | MIC ([3]; Staphylococcus aureus, MRSA, MRSA 570, Phase II, 1st, read-out: MIC) | MIC ([3]; Staphylococcus aureus, MRSA, MRSA 570, Phase II, 2nd, read-out: MIC) | MIC ([3]; Staphylococcus aureus, MRSA, MRSA 580, Phase I, 1st, read-out: MIC) | MIC ([3]; Staphylococcus aureus, MRSA, MRSA 580, Phase I, 2nd, read-out: MIC) | MIC ([3]; Staphylococcus aureus, MRSA, MRSA 580, Phase II, 1st, read-out: MIC) | MIC ([3]; Staphylococcus aureus, MRSA, MRSA 580, Phase II, 2nd, read-out: MIC) | MIC ([3]; Staphylococcus aureus, MRSA, MRSA 713, Phase I, 1st, read-out: MIC) | MIC ([3]; Staphylococcus aureus, MRSA, MRSA 713, Phase I, 2nd, read-out: MIC) | MIC ([3]; Staphylococcus aureus, MRSA, MRSA 718, Phase I, 1st, read-out: MIC) | MIC ([3]; Staphylococcus aureus, MRSA, MRSA 718, Phase I, 2nd, read-out: MIC) | MIC ([3]; Staphylococcus aureus, MRSA, MRSA 734, Phase I, 1st, read-out: MIC) | MIC ([3]; Staphylococcus aureus, MRSA, MRSA 734, Phase I, 2nd, read-out: MIC) | MIC ([3]; Staphylococcus aureus, MRSA, MRSA 747, Phase I, 1st, read-out: MIC) | MIC ([3]; Staphylococcus aureus, MRSA, MRSA 747, Phase I, 2nd, read-out: MIC) | MIC ([3]; Staphylococcus aureus, MRSA, MRSA 778, Phase I, 1st, read-out: MIC) | MIC ([3]; Staphylococcus aureus, MRSA, MRSA 778, Phase I, 2nd, read-out: MIC) | MIC ([3]; Staphylococcus aureus, MRSA, MRSA 787, Phase I, 1st, read-out: MIC) | MIC ([3]; Staphylococcus aureus, MRSA, MRSA 787, Phase I, 2nd, read-out: MIC) | MIC ([3]; Staphylococcus aureus, MRSA, MRSA 823, Phase I, 1st, read-out: MIC) | MIC ([3]; Staphylococcus aureus, MRSA, MRSA 823, Phase I, 2nd, read-out: MIC)
8 µg/mL: MIC90 [1, 5] | MIC ([3]; Staphylococcus aureus, MRSA, MRSA 698, Phase II, 1st, read-out: MIC) | MIC ([3]; Staphylococcus aureus, MRSA, MRSA 698, Phase II, 2nd, read-out: MIC) | MIC ([3]; Staphylococcus aureus, MRSA, MRSA 741, Phase I, 1st, read-out: MIC) | MIC ([3]; Staphylococcus aureus, MRSA, MRSA 741, Phase I, 2nd, read-out: MIC) | MIC ([4]; Staphylococcus pseudintermedius, isolate S22P22, read-out: MIC)
1 µg/mL: MIC ([4]; Staphylococcus pseudintermedius, isolate S14P14, read-out: MIC) | MIC ([4]; Staphylococcus pseudintermedius, isolate S17P17, read-out: MIC)
